Laboratory results: the NIST ThermoML archive (doi:10.1021/je060271a)

Settings: 323.15 K, Liquid, Vibrating tube method

CCCCCCC(=O)OCC(COC(=O)CCCCCC)(COC(=O)CCCCCC)COC(=O)CCCCCC [pentaerythritol tetraheptanoate]
Settings	mass density [kg/m3]
21056 kPa	969.3
21077 kPa	969.3
21094 kPa	969.4
21132 kPa	969.3
21278 kPa	969.4
21299 kPa	969.5
21316 kPa	969.5
21334 kPa	969.5
21352 kPa	969.4
21372 kPa	969.6
21390 kPa	969.6
21408 kPa	969.8
21430 kPa	969.6
21448 kPa	969.6
21466 kPa	969.5
21483 kPa	969.6
21504 kPa	969.5
21522 kPa	969.6
21540 kPa	969.7
21562 kPa	969.6
21580 kPa	969.6
21601 kPa	969.7
21619 kPa	969.8
21637 kPa	969.7
21659 kPa	969.7
21677 kPa	969.8
21695 kPa	969.8
21716 kPa	969.7
21734 kPa	969.8
21753 kPa	969.7
21775 kPa	969.9
21793 kPa	969.8
21830 kPa	969.9
21852 kPa	969.8
21871 kPa	969.8
21930 kPa	970
21950 kPa	969.9
21968 kPa	969.8
21990 kPa	969.9
22070 kPa	970
22089 kPa	969.9
22112 kPa	969.9
22131 kPa	970
22150 kPa	969.9
22173 kPa	970
22193 kPa	970
22213 kPa	970
22232 kPa	970
22275 kPa	970.2
22313 kPa	970.1
22336 kPa	970.1
22356 kPa	970.1
22380 kPa	970.1
22399 kPa	970.2
22419 kPa	970.2
22442 kPa	970.1
22463 kPa	970.2
22483 kPa	970.2
22502 kPa	970.2
22522 kPa	970.2
22546 kPa	970.1
22566 kPa	970.2
22585 kPa	970.4
22609 kPa	970.3
22629 kPa	970.3
22653 kPa	970.3
22717 kPa	970.3
22758 kPa	970.4
22779 kPa	970.4
22804 kPa	970.4
22824 kPa	970.4
22848 kPa	970.5
22869 kPa	970.4
22889 kPa	970.4
22913 kPa	970.4
23043 kPa	970.5
23090 kPa	970.5
23337 kPa	970.7
23406 kPa	970.7
23640 kPa	970.9
23662 kPa	970.8
23684 kPa	970.9
23706 kPa	970.9
23734 kPa	970.9
23970 kPa	971.1
23993 kPa	971.2
24020 kPa	971.1
24043 kPa	971
24070 kPa	971.1
24093 kPa	971.2
24116 kPa	971.2
24143 kPa	971.2
24166 kPa	971.1
24190 kPa	971.2
24215 kPa	971.1
24242 kPa	971.3
24265 kPa	971.3
24289 kPa	971.3
24317 kPa	971.3
24340 kPa	971.4
24364 kPa	971.3
24387 kPa	971.3
24415 kPa	971.3
24466 kPa	971.4
24515 kPa	971.5
24540 kPa	971.4
24564 kPa	971.4
24616 kPa	971.5
24669 kPa	971.6
24770 kPa	971.5
25086 kPa	971.7
25112 kPa	971.8
25142 kPa	971.7
25168 kPa	971.8
25198 kPa	971.9
25224 kPa	971.9
25249 kPa	971.7
25275 kPa	971.9
25306 kPa	971.9
25330 kPa	971.9
25356 kPa	971.9
25439 kPa	971.9
25465 kPa	972
25496 kPa	972
25522 kPa	972.1
25549 kPa	972
25575 kPa	972
25607 kPa	972.1
25663 kPa	972.2
25691 kPa	972.2
25743 kPa	972.1
25775 kPa	972.2
25801 kPa	972.2
26029 kPa	972.3
26061 kPa	972.3
26121 kPa	972.4
26148 kPa	972.5
26175 kPa	972.3
26208 kPa	972.5
26235 kPa	972.4
26263 kPa	972.6
26296 kPa	972.3
26325 kPa	972.4
26352 kPa	972.5
26386 kPa	972.5
26413 kPa	972.5
26441 kPa	972.4
26475 kPa	972.6
26503 kPa	972.6
26531 kPa	972.6
26559 kPa	972.6
26594 kPa	972.6
26622 kPa	972.6
26658 kPa	972.7
26682 kPa	972.6
26717 kPa	972.7
26745 kPa	972.7
26901 kPa	972.8
26930 kPa	972.9
26959 kPa	972.9
26995 kPa	972.9
27304 kPa	973.1
27340 kPa	973.1
27371 kPa	973
27401 kPa	973.1
27437 kPa	973.1
27468 kPa	973.1
27498 kPa	973
27534 kPa	973.2
27632 kPa	973.3
27663 kPa	973.3
27694 kPa	973.3
27794 kPa	973.3
27926 kPa	973.5
27963 kPa	973.5
27996 kPa	973.5
28065 kPa	973.4
28096 kPa	973.6
28128 kPa	973.5
28160 kPa	973.5
28199 kPa	973.6
28231 kPa	973.6
28270 kPa	973.6
28302 kPa	973.6
28334 kPa	973.7
28471 kPa	973.7
28511 kPa	973.9
28544 kPa	973.6
28577 kPa	973.8
28617 kPa	973.8
28650 kPa	973.8
28689 kPa	973.9
28723 kPa	973.8
28864 kPa	973.9
29014 kPa	974
29565 kPa	974.4
29607 kPa	974.4
29642 kPa	974.4
29686 kPa	974.4
29724 kPa	974.5
29761 kPa	974.5
29798 kPa	974.5
29834 kPa	974.6
29878 kPa	974.6
29915 kPa	974.6
29959 kPa	974.6
29995 kPa	974.7
30032 kPa	974.6
30076 kPa	974.8
30114 kPa	974.7
30151 kPa	974.7
30237 kPa	974.8
30274 kPa	974.7
30312 kPa	974.8
30358 kPa	974.7
30396 kPa	974.8
30434 kPa	974.9
32025 kPa	975.7
32076 kPa	975.7
32119 kPa	975.8
32170 kPa	975.9
32213 kPa	975.8
32256 kPa	975.9
32308 kPa	976
